Here are results for 3 compounds from article PMC4290084, “Multiplex Imaging and Cellular Target Identification of Kinase Inhibitors via an Affinity-Based Proteome Profiling Approach” (Scientific Reports, 2015).

The target of test [1] is T1, Aurora kinase A (AKA) (Homo sapiens, UniProt O14965).
T1 construct: gene AURKA; recombinant AKA
T1 sequence (O14965 1-403): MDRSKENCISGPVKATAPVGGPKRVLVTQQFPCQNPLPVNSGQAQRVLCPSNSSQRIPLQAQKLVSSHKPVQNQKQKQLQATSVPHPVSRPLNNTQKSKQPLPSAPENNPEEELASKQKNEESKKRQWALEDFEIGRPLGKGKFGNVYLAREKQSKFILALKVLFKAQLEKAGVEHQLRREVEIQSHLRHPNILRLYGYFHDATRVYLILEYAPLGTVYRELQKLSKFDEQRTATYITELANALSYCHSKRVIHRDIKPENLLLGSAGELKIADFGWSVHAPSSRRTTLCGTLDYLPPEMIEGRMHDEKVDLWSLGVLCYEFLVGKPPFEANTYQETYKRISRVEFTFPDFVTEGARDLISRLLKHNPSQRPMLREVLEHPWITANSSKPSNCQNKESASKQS
Kind of test: Kinase-Glo in vitro kinase inhibition assay with recombinant AKA. In kind it is biochemical. In general terms: Kinase-Glo reads ATP consumption through a luciferase reaction.

Test [2] addresses T1, Aurora kinase A (AKA). Put plainly: Kinase-Glo in vitro kinase inhibition assay with recombinant AKA; also photoaffinity labeling with PD/WB and IP in HeLa cells. The test is classed as biochemical.

The structures appear in SMILES notation.

In the case of `COc1cc(Nc2ncc3c(n2)-c2ccc(Cl)cc2C(c2c(F)cccc2OC)=NC3)ccc1C(=O)NCCNC(=O)OC1CC/C=C/CCC1` (stereo not drawn) [MLN-3], the IC50 at Aurora kinase A (AKA) [1] amounted to 67.2 ± 0.4 nM.
As for `C#CCCC1(CCNC(=O)c2ccc(Nc3ncc4c(n3)-c3ccc(Cl)cc3C(c3c(F)cccc3OC)=NC4)cc2OC)N=N1` [MLN-2], the IC50 on Aurora kinase A (AKA) [2] was 15.1 ± 0.5 nM.
On to `C#CCNC(=O)c1ccc(Nc2ncc3c(n2)-c2ccc(Cl)cc2C(c2c(F)cccc2OC)=NC3)cc1OC` [MLN-1], for which the IC50 at Aurora kinase A (AKA) [1] was determined as 23.3 ± 0.5 nM.

What is called IC50 is the concentration that gives 50% inhibition.
